Measured values published in patent US10266513B2 (Pfizer Inc., priority 2012, dated 2019).

Target: human full-length BTK Kinase (Homo sapiens (Human), UniProt Q06187)
Assay: Human BTK LanthaScreen Assay (TR-FRET)
Format: biochemical
Conditions: 50 μM ATP, FAM-Srctide peptide substrate, read-out: BTK Inhibition IC50
From the text: Human BTK LanthaScreen Assay

Sequence of human full-length BTK Kinase (Q06187 whole entry): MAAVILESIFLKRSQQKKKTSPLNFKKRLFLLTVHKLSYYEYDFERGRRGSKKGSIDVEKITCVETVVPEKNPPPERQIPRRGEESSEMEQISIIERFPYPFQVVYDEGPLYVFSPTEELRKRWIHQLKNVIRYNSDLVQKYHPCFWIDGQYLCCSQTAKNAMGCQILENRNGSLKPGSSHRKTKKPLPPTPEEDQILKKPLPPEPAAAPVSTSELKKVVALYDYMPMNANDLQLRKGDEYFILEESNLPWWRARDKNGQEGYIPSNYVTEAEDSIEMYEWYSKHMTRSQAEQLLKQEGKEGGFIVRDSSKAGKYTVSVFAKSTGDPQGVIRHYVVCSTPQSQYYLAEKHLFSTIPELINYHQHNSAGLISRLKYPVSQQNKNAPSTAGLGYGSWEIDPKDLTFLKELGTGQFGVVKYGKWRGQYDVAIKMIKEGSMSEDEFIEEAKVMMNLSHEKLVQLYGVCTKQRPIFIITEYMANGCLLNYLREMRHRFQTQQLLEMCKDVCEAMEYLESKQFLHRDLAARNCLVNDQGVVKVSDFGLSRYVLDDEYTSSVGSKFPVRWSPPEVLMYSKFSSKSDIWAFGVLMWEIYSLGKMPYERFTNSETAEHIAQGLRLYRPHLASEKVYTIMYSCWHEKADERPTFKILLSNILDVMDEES

First: C/C=C/C(=O)N1CCCC(n2nc(-c3ccc(Oc4ccccc4)cc3)c(C(N)=O)c2N)C1 (centres unmarked) [Example 128, 5-amino-1-{1-[(2E)-but-2-enoyl]piperidin-3-yl}-3-(4-phenoxyphenyl)-1H-pyrazole-4-carboxamide]
Second: NC(=O)c1c(-c2ccc(Oc3ccccc3)cc2)nn([C@@H]2CCCN(C(=O)/C=C/CO)C2)c1N [Example 129, 5-amino-1-{(3R)-1-[(2E)-4-hydroxybut-2-enoyl]piperidin-3-yl}-3-(4-phenoxyphenyl)-1H-pyrazole-4-carboxamide]
The IC50 of the first is 4.5-fold higher: 4.5 nM for the first, 1 nM for the second. The second is the more potent here.

`N#CCN1CCC(n2nc(-c3ccc(Oc4ccccc4)cc3)c(C(N)=O)c2N)C1` (centres unmarked) [Example 8, 5-amino-1-[1-(cyanomethyl)pyrrolidin-3-yl]-3-(4-phenoxyphenyl)-1H-pyrazole-4-carboxamide] and `N#CN1CCC(n2nc(-c3ccc(Oc4ccccc4)cc3)c(C(N)=O)c2N)C1` (centres unmarked) [Example 7, 5-amino-1-(1-cyanopyrrolidin-3-yl)-3-(4-phenoxyphenyl)-1H-pyrazole-4-carboxamide] are within 1.5-fold of each other in IC50: 16.5 nM for the first, 16.2 nM for the second.

Compared with `COC/C=C/C(=O)N1CCC[C@@H](n2nc(-c3ccc(Oc4ccc(F)cc4F)cc3)c(C(N)=O)c2N)C1` [Example 138, 5-amino-3-[4-(2,4-difluorophenoxy)phenyl]-1-{(3R)-1-[(2E)-4-methoxybut-2-enoyl]piperidin-3-yl}-1H-pyrazole-4-carboxamide], `C/C=C/C(=O)N1CCC[C@@H](n2nc(-c3ccc(Oc4ccc(F)cc4F)cc3)c(C(N)=O)c2N)C1` [Example 142, 5-amino-1-{(3R)-1-[(2E)-but-2-enoyl]piperidin-3-yl}-3-[4-(2,4-difluorophenoxy)phenyl]-1H-pyrazole-4-carboxamide] is 2.8-fold higher in IC50: 21.8 nM for the first, 61 nM for the second. The first is the more potent here.

First: N#CN1CCCC(n2nc(-c3ccc(Oc4ccc(F)cn4)cc3)c(C(N)=O)c2N)C1 (centres unmarked) [Example 111, 5-amino-1-(1-cyanopiperidin-3-yl)-3-{4-[(5-fluoropyridin-2-yl)oxy]phenyl}-1H-pyrazole-4-carboxamide]
Second: N#CN1CCCC(n2nc(-c3ccc(Oc4ccc(F)cc4)cc3)c(C(N)=O)c2N)C1 (centres unmarked) [Example 41, 5-amino-1-(1-cyanopiperidin-3-yl)-3-[4-(4-fluorophenoxy)phenyl]-1H-pyrazole-4-carboxamide]
The IC50 of the first is 19-fold higher: 119 nM for the first, 6.3 nM for the second.

Going from `N#CN1CCCC(n2nc(-c3cccc(Cc4ccc(Cl)cc4)c3)c(C(N)=O)c2N)C1` (centres unmarked) [Example 92, 5-amino-3-[3-(4-chlorobenzyl)phenyl]-1-(1-cyanopiperidin-3-yl)-1H-pyrazole-4-carboxamide] to `N#CN1CCCC(n2nc(-c3ccc(Cc4cccc(F)c4)cc3)c(C(N)=O)c2N)C1` (single isomer, unassigned) [Example 78], the IC50 falls from 73.4 nM to 1.4 nM (52-fold). The second is the more potent here.

`N#CN1CCCC(n2nc(-c3ccc(Cc4ccccc4F)cc3)c(C(N)=O)c2N)C1` (centres unmarked) [Example 74, 5-amino-1-(1-cyanopiperidn-3-yl)-3-[4-(2-fluorobenzyl)phenyl]-1H-pyrazole-4-carboxamide] and `N#CN1CCC[C@@H](n2nc(-c3ccc(Cc4ccccc4F)cc3)c(C(N)=O)c2N)C1` (single isomer, unassigned) [Example 75] are within 1.5-fold of each other in IC50: 1 nM for the first, 0.81 nM for the second.

Going from `COc1cccc(Oc2ccc(-c3nn(C4CCCN(C#N)C4)c(N)c3C(N)=O)cc2)c1` (centres unmarked) [Example 48, 5-amino-1-(1-cyanopiperidin-3-yl)-3-[4-(3-methoxyphenoxy)phenyl]-1H-pyrazole-4-carboxamide] to `N#CN1CCCC(n2nc(-c3cccc(Oc4ccc(F)cc4)c3)c(C(N)=O)c2N)C1` (centres unmarked) [Example 94, 5-Amino-1-(1-cyanopiperidin-3-yl)-3-(3-(4-fluorophenoxy)phenyl)-1H-pyrazole-4-carboxamide], the IC50 rises from 0.44 nM to 50.2 nM (110-fold). The first is the more potent here.

First: CC(C)c1ccc(Oc2cccc(-c3nn(C4CCCN(C#N)C4)c(N)c3C(N)=O)c2)cc1 (centres unmarked) [Example 100, 5-amino-1-(1-cyanopiperidin-3-yl)-3-[3-(4-isopropylphenoxy)phenyl]-1H-pyrazole-4-carboxamide]
Second: Cc1cc(Oc2cccc(-c3nn(C4CCCN(C#N)C4)c(N)c3C(N)=O)c2)ccc1C(C)C (centres unmarked) [Example 101, 5-amino-1-(1-cyanopiperidin-3-yl)-3-[3-(4-isopropyl-3-methylphenoxy)phenyl]-1H-pyrazole-4-carboxamide]
The IC50 of the first is 3.1-fold higher: 16.3 nM for the first, 5.3 nM for the second. The second is the more potent here.

Compared with `CC(C)(O)/C=C/C(=O)N1CCC[C@@H](n2nc(-c3ccc(Oc4ccc(F)cc4F)cc3)c(C(N)=O)c2N)C1` [Example 147, 5-amino-3-[4-(2,4-difluorophenoxy)phenyl]-1-{(3R)-1-[(2E)-4-hydroxy-4-methylpent-2-enoyl]piperidin-3-yl}-1H-pyrazole-4-carboxamide], `C[C@@H](O)/C=C/C(=O)N1CCC[C@@H](n2nc(-c3ccc(Oc4ccc(F)cc4F)cc3)c(C(N)=O)c2N)C1` [Example 149, 5-amino-3-(4-(2,4-difluorophenoxy)phenyl)-1-((R)-1-((R,E)-4-hydroxypent-2-enoyl)piperidin-3-yl)-1H-pyrazole-4-carboxamide] is 4.6-fold lower in IC50: 241 nM for the first, 52 nM for the second. The second is the more potent here.

Going from `N#CN1CCCC(n2nc(-c3cccc(Oc4ccccc4)c3)c(C(N)=O)c2N)C1` (centres unmarked) [Example 89, 5-amino-1-(1-cyanopiperidin-3-yl)-3-(3-phenoxyphenyl)-1H-pyrazole-4-carboxamide] to `N#CN1CCC(n2nc(-c3ccc(Oc4ccccc4)cc3)c(C(N)=O)c2N)CC1` [Example 5, 5-amino-1-(1-cyanopiperidin-4-yl)-3-(4-phenoxyphenyl)-1H-pyrazole-4-carboxamide], the IC50 rises from 7.7 nM to 32.1 nM (4.2-fold). The first is the more potent here.

Going from `N#CN1CCCC(n2nc(-c3ccc(Oc4cc(F)ccc4F)cc3)c(C(N)=O)c2N)C1` (centres unmarked) [Example 43, 5-amino-1-(1-cyanopiperidin-3-yl)-3-[4-(2,5-difluorophenoxy)phenyl]-1H-pyrazole-4-carboxamide] to `N#CN1CCCC(n2nc(-c3ccc(Oc4ccc(F)cc4F)cc3)c(C(N)=O)c2N)C1` (single isomer, unassigned) [Example 26], the IC50 rises from 0.77 nM to 17.3 nM (22-fold). The first is the more potent here.

First: C[C@H]1CC[C@@H](n2nc(-c3ccc(Oc4ccc(F)cc4F)cc3)c(C(N)=O)c2N)CN1C#N [Example 122, 5-amino-1-[(3R,6S)-1-cyano-6-methylpiperidin-3-yl]-3-[4-(2,4-difluorophenoxy)phenyl]-1H-pyrazole-4-carboxamide]
Second: C[C@@H]1CC[C@H](n2nc(-c3ccc(Oc4ccc(F)cc4F)cc3)c(C(N)=O)c2N)CN1C#N [Example 123, 5-amino-1-[(3S,6R)-1-cyano-6-methylpiperidin-3-yl]-3-[4-(2,4-difluorophenoxy)phenyl]-1H-pyrazole-4-carboxamide]
The IC50 of the first is 860-fold lower: 0.46 nM for the first, 396 nM for the second. The first is the more potent here.

Compared with `C[C@H]1CC[C@@H](n2nc(-c3ccc(Oc4ccc(F)cc4F)cc3)c(C(N)=O)c2N)CN1C#N` (relative stereo) [Example 121, 5-amino-1-[(3R*,6S*)-1-cyano-6-methylpiperidin-3-yl]-3-[4-(2,4-difluorophenoxy)phenyl]-1H-pyrazole-4-carboxamide], `NC(=O)c1c(-c2ccc(Oc3ccc(F)cc3F)cc2)nn([C@@H]2CCCN(C(=O)/C(F)=C/CO)C2)c1N` [Example 146, 5-amino-3-[4-(2,4-difluorophenoxy)phenyl]-1-{(3R)-1-[(2Z)-2-fluoro-4-hydroxybut-2-enoyl]piperidin-3-yl}-1H-pyrazole-4-carboxamide] is 4.8-fold higher in IC50: 9.9 nM for the first, 48 nM for the second. The first is the more potent here.

Compared with `N#CN1CCCC(n2nc(-c3ccc(Oc4cc(Cl)cc(Cl)c4)cc3)c(C(N)=O)c2N)C1` (centres unmarked) [Example 60, 5-amino-1-(1-cyanopiperidin-3-yl)-3-[4-(3,5-dichlorophenoxy)phenyl]-1H-pyrazole-4-carboxamide], `N#CN1CCCC(n2nc(-c3ccc(Oc4cc(F)cc(F)c4)cc3)c(C(N)=O)c2N)C1` (centres unmarked) [Example 66, 5-amino-1-(1-cyanopiperidin-3-yl)-3-[4-(3,5-difluorophenoxy)phenyl]-1H-pyrazole-4-carboxamide] is 1.5-fold higher in IC50: 4.8 nM for the first, 7.2 nM for the second. The first is the more potent here.

`C=C(F)C(=O)N1CCC[C@@H](n2nc(-c3ccc(Oc4ccc(Cl)cc4)cc3)c(C(N)=O)c2N)C1` [Example 134, 5-amino-3-[4-(4-chlorophenoxy)phenyl]-1-[(3R)-1-(2-fluoroacryloyl)piperidin-3-yl]-1H-pyrazole-4-carboxamide] and `C=C(F)C(=O)N1CCC[C@@H](n2nc(-c3ccc(Oc4cccc(C(F)(F)F)n4)cc3)c(C(N)=O)c2N)C1` [Example 165] are within 1.5-fold of each other in IC50: 5 nM for the first, 4.4 nM for the second.

First: N#CN1CCCC(n2nc(-c3ccc(Cc4cccc(F)c4)cc3)c(C(N)=O)c2N)C1 (single isomer, unassigned) [Example 79]
Second: N#CN1CCCC(n2nc(-c3ccc(Cc4ccc(F)cc4F)cc3)c(C(N)=O)c2N)C1 (single isomer, unassigned) [Example 81]
The IC50 of the first is 5.4-fold higher: 31 nM for the first, 5.7 nM for the second.

Compared with `N#CN1CCC[C@H](n2nc(-c3ccc(Cc4ccccc4Cl)cc3)c(C(N)=O)c2N)C1` [Example 73, (S)-5-amino-3-(4-(2-chlorobenzyl)phenyl)-1-(1-cyanopiperidin-3-yl)-1H-pyrazole-4-carboxamide], `N#CN1CCCC(n2nc(-c3ccc(Oc4ccc(F)c(Cl)c4)cc3)c(C(N)=O)c2N)C1` (centres unmarked) [Example 58, 5-amino-3-[4-(3-chloro-4-fluoro-phenoxy)phenyl]-1-(1-cyanopiperidin-3-yl)-1H-pyrazole-4-carboxamide] is 3.4-fold lower in IC50: 6.1 nM for the first, 1.8 nM for the second. The second is the more potent here.

Compared with `CC(C)Oc1ccc(Oc2ccc(-c3nn(C4CCCN(C#N)C4)c(N)c3C(N)=O)cc2)cc1` (centres unmarked) [Example 44, 5-amino-1-(1-cyanopiperidin-3-yl)-3-[4-(4-isopropoxyphenoxy)phenyl]-1H-pyrazole-4-carboxamide], `N#CN1CCCC(n2nc(-c3ccc(Oc4cc(Cl)ccc4Cl)cc3)c(C(N)=O)c2N)C1` (centres unmarked) [Example 55, 5-amino-1-(1-cyanopiperidin-3-yl)-3-[4-(2,5-dichlorophenoxy)phenyl]-1H-pyrazole-4-carboxamide] is 11-fold lower in IC50: 24.4 nM for the first, 2.2 nM for the second. The second is the more potent here.

Going from `N#CN1CCCC(n2nc(-c3ccc(Oc4ccc(Cl)cc4Cl)cc3)c(C(N)=O)c2N)C1` (centres unmarked) [Example 50, 5-amino-1-(1-cyanopiperidin-3-yl)-3-[4-(2,4-dichlorophenoxy)phenyl]-1H-pyrazole-4-carboxamide] to `N#CN1CCCC(n2nc(-c3ccc(Oc4ccc(F)cc4)cc3Cl)c(C(N)=O)c2N)C1` (centres unmarked) [Example 120, 5-amino-3-[2-chloro-4-(4-fluorophenoxy)phenyl]-1-(1-cyanopiperidin-3-yl)-1H-pyrazole-4-carboxamide], the IC50 rises from 1.8 nM to 141 nM (78-fold). The first is the more potent here.
